From patent US20220273562A1, “HYDROPHOBICALLY ASSOCIATING POLYMER COUNTER ION PAIR COMPLEXES” (MALVERN COSMECEUTICS LIMITED, priority 2019, published 2022)
Counter-ions that a name gives are not always drawn. One block for each compound: values may come before it.

Legend:
[1] = Stability of the mixtures after 2-4 mths at 4° C.; format: physicochemical; design: key to Stability* After 2-4 mths + at 4° C.: S-stable; PS—partially stable; NS—not stable
[2] = Ability of polymer counter ion pair to solubilise lipid: visual clarity of polymer counter ion/PL mixtures as pH is adjusted; settings: for ion pairing with SMA 1:1 leading to formation of SMA/PL macromolecular assemblies: hydrochloride salts as cationic counter ions
[3] = SMA 1:1 50 mg, DLPC 20 mg, 2 ml, amine HCl: isopentylamine 3 mg, isobutylamine 9 mg, tyramine 5-6 mg, diphenhydramine 2.5-4 mg, phenylalanine ethyl ester 10 mg, tolazoline 5 mg, naphazoline 8 mg total
[4] = SMA 1:1 50 mg, DLPC 20 mg, 2 ml, phenylalanine ethyl ester 'Cleared,', tolazoline 'Remains clear overnight,', naphazoline 'Virtually clear'
[5] = SMA 1:1 50 mg, DLPC 20 mg (2.5:1), 2 ml, amine HCl [% w/w]: isopentylamine 3 mg [0.15], isobutylamine 9 mg [0.45] (clears on standing 3 days), tyramine 5-6 mg [0.25-0.3], diphenhydramine 2.5-4 mg [0.13-0.2], phenylalanine ethyl ester 10 mg [0.5], tolazoline 5 mg [0.25], naphazoline 5 mg, start pH 7 or 8
[6] = SMA 1:1 50 mg, DLPC 20 mg, 2 ml, naphazoline HCl further 3 mg, 8 mg [0.4% w/w] total

Stability* After 2-4 mths + at 4° C. [1, 3]: S
Stability, appearance in words [1, 4]: clear
pH for clear sample ([2]; Poly(methacrylic acid) sodium 4-6k 50 mg (preformed PMA + Bz), DLPC 10 mg (5:1), 2 ml, start pH 7-8, tolazoline HCl 22 mg [1.1% w/w], printed 'ppt & clear'): 6, ppt &
pH for clear sample [2, 5]: 7-8,
collapse pK of the 1:1 SMA polymer when associating with PL ([2]; imidazoline counter ion in place of a primary amine): ~7
SMILES: c1ccc(CC2=NCCN2)cc1 [2-Benzyl-2-imidazoline (tolazoline), 2-benzyl-2-imidazoline, reference compound]

SMILES: COc1cc(C(O)CN)ccc1O (stereo not drawn) [normetanephrine]
ion pairing with SMA 1:1 leading to formation of SMA/PL macromolecular assemblies [2]: failed

ion pairing with SMA 1:1 leading to formation of SMA/PL macromolecular assemblies [2]: failed
SMILES: NCC(O)c1ccc(O)cc1 (stereo not drawn) [octopamine]

SMILES: Cl.NCCc1ccccc1 [PEA, 2-Phenylethylamine hydrochloride]
Stability* After 2-4 mths + at 4° C. ([1]; SMA 1:1 40 mg, DLPC 20 mg, 1.6 ml, PEA HCl 4.4 mg [0.25% w/w]): NS
Stability* After 2-4 mths + at 4° C. ([1]; SMA 1:1 50 mg, DLPC 25 mg, 2 ml, PEA HCl 40 mg [2% w/w]): PS
collapse pH ([2]; 2% PEA added to a 2.5% solution of 1:1 SMA): 8-9
pH for clear sample ([2]; SMA 1:1 40 mg, DLPC 20 mg (2:1), final vol 1.6 ml, PEA HCl 4.4 mg [0.25% w/w]): 7, Clear
pH for clear sample ([2]; SMA 1:1 40 mg, DLPC 20 mg, final vol 1.64 ml, further 2.9 mg PEA HCl, 7.3 mg [0.45% w/w] total): 10, Clear
pH for clear sample ([2]; SMA 1:1 50 mg, DLPC 25 mg (2:1), final vol 2 ml, PEA HCl 40 mg [2% w/w]): 8.5 clear
pH for clear sample ([2]; SMA 2:1 50 mg, DLPC 25 mg (polymer:lipid 2:1), final vol 2 ml, PEA HCl 40 mg [2% w/w]): 9 clear
pH over which the polymer collapses to interact with phospholipid ([2]; ratio SMA(1:1):PEA 5:4): 8.5
pH over which the polymer collapses to interact with phospholipid ([2]; ratio SMA(1:1):PEA 9:1): 7.0

ion pairing with SMA 1:1 leading to formation of SMA/PL macromolecular assemblies [2]: failed
SMILES: N[C@@H](Cc1ccc(O)c(O)c1)C(=O)O [L-dopa, reference compound]

Stability, appearance in words ([1]; Poly(methacrylic acid) sodium 4-6k 50 mg, DLPC 10 mg, isobutyl amine HCl 10 mg [0.5% w/w]): Clear
Stability, appearance in words ([1]; Poly(methacrylic acid) sodium 4-6k 50 mg, DLPC 10 mg, isobutyl amine HCl 24 mg then 36 mg total, printed 'Clear overnight few white ppt particles'): Clear
Stability* After 2-4 mths + at 4° C. [1, 3]: S
pH for clear sample ([2]; Poly(maleic acid) 50 mg, DLPC 2 mg (25:1), isobutyl amine HCl further 5 mg, 20 mg [1.0% w/w] total, printed 'No clearing.'): No
pH for clear sample ([2]; Poly(maleic acid) 50 mg, DLPC 2 mg, isobutyl amine HCl further 5 mg, 25 mg [1.25% w/w] total, at pH 8, printed '8, No clearing.'): 8, No
pH for clear sample ([2]; Poly(maleic acid) 50 mg, DLPC further 2, total 4 mg (12.5:1), isobutyl amine HCl 25 mg, complete clearing, fine white flecks): 3, Complete
pH at which ppt forms ([2]; Poly(maleic acid) 50 mg, DLPC total 4 mg (12.5:1), isobutyl amine HCl 25 mg): 4 ppt.
pH for clear sample ([2]; Poly(maleic acid) ex PolyS 50 mg, 2 ml, start pH 8, isobutyl amine HCl 15 mg [0.75% w/w], no DLPC entered in this line): 7
pH at which ppt forms ([2]; Poly(methacrylic acid) sodium 4-6k 50 mg, DLPC 10 mg (5:1), 2 ml, start pH 6, isobutyl amine HCl 10 mg [0.5% w/w]): 4, ppt
pH for clear sample ([2]; Poly(methacrylic acid) sodium 4-6k 50 mg, DLPC 10 mg, isobutyl amine HCl 24 mg [1.2% w/w] total): ppt, 5
pH at which slight clouding occurs ([2]; Poly(methacrylic acid) sodium 4-6k 50 mg, DLPC 10 mg, isobutyl amine HCl 36 mg [1.8% w/w] total): 5, slight
pH for clear sample [2, 5]: 8, clears
SMILES: CC(C)CN [Isobutylamine]

ion pairing with SMA 1:1 leading to formation of SMA/PL macromolecular assemblies [2]: failed
SMILES: NCCc1ccc(O)c(O)c1 [dopamine, reference compound]

pH at which ppt forms ([2]; SMA 1:1 50 mg, DLPC 20 mg, 2 ml, diphenhydramine HCl 2.5-4 mg [0.13-0.2% w/w]): ppt 6
SMILES: CN(C)CCOC(c1ccccc1)c1ccccc1 [Diphenhydramine, diphenhydramine hydrochloride, reference compound]

ion pairing with SMA 1:1 leading to formation of SMA/PL macromolecular assemblies [2]: failed
SMILES: CCOC(=O)c1ccc(N)cc1 [benzocaine, reference compound]

Stability* After 2-4 mths + at 4° C. [1, 3]: PS
Stability, appearance in words [1, 4]: clear
pH for clear sample [2, 5]: 8, Clear
pH at which sample is cloudy [2, 6]: Cloudy 7,
pH for clear sample [2, 6]: Clear 8-9.
SMILES: c1ccc2c(CC3=NCCN3)cccc2c1 [Naphazoline, naphazoline hydrochloride, reference compound]
ion pairing with SMA 1:1 leading to formation of SMA/PL macromolecular assemblies [2]: can also surprisingly be used as ion pairs

ion pairing with SMA 1:1 leading to formation of SMA/PL macromolecular assemblies [2]: failed
SMILES: NC[C@H](O)c1ccc(O)c(O)c1 [L-norepinephrine, reference compound]

ion pairing with SMA 1:1 leading to formation of SMA/PL macromolecular assemblies [2]: only partially formed
SMILES: CN(C)CCCC1c2ccccc2CCc2ccccc21 [amitryptyline hydrochloride, reference compound]

Stability* After 2-4 mths + at 4° C. [1, 3]: PS
Stability, appearance in words [1, 4]: Cleared,
pH for clear sample [2, 5]: 8, Clears
SMILES: CCOC(=O)[C@@H](N)Cc1ccccc1.Cl [Phenylalanine ethyl ester, L-phenylalanine ethyl ester hydrochloride]

Stability* After 2-4 mths + at 4° C. [1, 3]: S
SMILES: NCCc1ccc(O)cc1 [Tyramine, tyramine]
ion pairing with SMA 1:1 leading to formation of SMA/PL macromolecular assemblies [2]: can also surprisingly be used as ion pairs

Stability* After 2-4 mths + at 4° C. [1, 3]: NS
pH for clear sample [2, 5]: 7, Clear
SMILES: CC(C)CCN [Isopentylamine, Isopentyl amine]

ion pairing with SMA 1:1 leading to formation of SMA/PL macromolecular assemblies [2]: failed
SMILES: Nc1ccc(C(=O)O)cc1 [4-amino benzoic acid (PABA), 4-amino benzoic acid]
